Reference: patent US8377967B2, “Piperidine derivative” (Nippon Zoki Pharmaceutical Co., Ltd., priority 2008, dated 2013)

Assays:
[1] = tested on: histamine-induced vascular hyperpermeability reaction; test: Rat histamine-induced vascular hyperpermeability reaction (in vivo antihistamine action); conditions: SD male rat, oral administration 1 hour before intracutaneous histamine, leaked Evans Blue pigment
[2] = molecular target: human histamine H1 receptor (Homo sapiens, UniProt P35367); test: In vitro human histamine H1 receptor binding experiment ([3H]pyrilamine); conditions: HEK293A cells stably expressing human histamine H1 receptor, [3H]pyrilamine 3 nmol/L, room temperature 60 minutes
human histamine H1 receptor, sequence (P35367 whole entry): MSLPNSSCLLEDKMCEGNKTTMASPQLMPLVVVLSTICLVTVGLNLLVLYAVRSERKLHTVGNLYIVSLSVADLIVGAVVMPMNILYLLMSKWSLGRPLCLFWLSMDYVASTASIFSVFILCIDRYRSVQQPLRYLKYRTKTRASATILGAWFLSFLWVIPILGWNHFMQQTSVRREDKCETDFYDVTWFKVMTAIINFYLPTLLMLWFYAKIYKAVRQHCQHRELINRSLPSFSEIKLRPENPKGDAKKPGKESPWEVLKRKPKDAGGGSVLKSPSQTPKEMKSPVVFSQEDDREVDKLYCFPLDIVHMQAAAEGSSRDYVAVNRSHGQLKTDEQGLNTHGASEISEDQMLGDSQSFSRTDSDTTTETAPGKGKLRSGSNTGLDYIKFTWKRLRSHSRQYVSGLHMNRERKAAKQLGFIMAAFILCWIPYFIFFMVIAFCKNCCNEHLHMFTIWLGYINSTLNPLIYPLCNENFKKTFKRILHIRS
Procedure, shortened: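 HEK293A cells stably expressing human H1 receptor (3×10^5 cells/well) incubated 60 min at room temperature with test substance and 3 nmol/L [3H]pyrilamine in 50 mmol/L Tris-HCl pH 7.5, 0.1% BSA. Filtration and scintillation counting; nonspecific binding with 30 μmol/L pyrilamine.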

[3] = molecular target: T1, cerebral H1 receptor (Mus musculus, UniProt P70174); test: Murine cerebral H1 receptor occupying content (ex vivo); assay type: in vivo; conditions: for ED50: ICR male mouse, oral administration, brain excised after 1 hour, 3H-pyrilamine binding in brain homogenate, larger = lower brain transfer, read-out: ID50 (the source's name); for ID50 (mg/kg)/ ED50 (mg/kg): ID50 of cerebral receptor binding test (Table 20) divided by ED50 of vascular hyperpermeability test (Table 19)
T1 construct: the entire brain, except for cerebellum and medulla oblongatae, was rapidly excised; from tissue; host or cells: brain homogenate (without cerebellum and medulla oblongata) of orally dosed ICR male mice
T1 sequence (P70174 whole entry): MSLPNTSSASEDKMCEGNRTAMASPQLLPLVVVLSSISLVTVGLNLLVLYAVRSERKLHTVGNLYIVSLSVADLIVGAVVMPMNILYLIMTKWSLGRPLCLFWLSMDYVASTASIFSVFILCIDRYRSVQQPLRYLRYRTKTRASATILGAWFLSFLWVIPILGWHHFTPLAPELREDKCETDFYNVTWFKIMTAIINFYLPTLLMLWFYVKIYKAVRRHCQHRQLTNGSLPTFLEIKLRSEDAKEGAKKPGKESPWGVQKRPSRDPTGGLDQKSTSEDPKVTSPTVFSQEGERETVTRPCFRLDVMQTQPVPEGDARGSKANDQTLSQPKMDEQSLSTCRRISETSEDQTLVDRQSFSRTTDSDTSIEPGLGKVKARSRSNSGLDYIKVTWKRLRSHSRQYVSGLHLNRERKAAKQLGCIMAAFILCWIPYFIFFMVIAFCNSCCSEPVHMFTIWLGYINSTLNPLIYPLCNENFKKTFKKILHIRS

melting point [°C] | Compound | ED50 [1] [mg/kg] | IC50 [2] [nM] | ED50 [3] [mg/kg] | ID50 (mg/kg)/ ED50 (mg/kg) [3]
 | CCOC(=O)Cc1ccc2c(c1)C(=C1CCN(C)CC1)c1sccc1CO2.Cl [Compound 140, Ethyl[4-(1-methylpiperidin-4-ylidene)-4,10-dihydro-9-oxa-3-thiabenzo[f]azulen-6-yl]acetate hydrochloride] | ~0.01 | 10.1 | 3.5 | 350.0
 | CCN1CCC(=C2c3cc(CCCC(=O)O)ccc3OCc3ccsc32)CC1 [Compound 142, 4-[4-(1-Ethylpiperidin-4-ylidene)-4,10-dihydro-9-oxa-3-thiabenzo[f]azulen-6-yl]butyric acid] | ~0.3 | 90.9 | 11.9 | 39.7
 | CCOC(=O)C=Cc1cc2c(s1)CCc1ccccc1C2=C1CCNCC1.Cl [Compound 145, Ethyl 3-(4-piperidin-4-ylidene-9,10-dihydro-4H-1-thiabenzo[f]azulen-2-yl)acrylate hydrochloride] | 0.29 | 68.6 | > 200 | >689.7
 | CN1CCC(=C2c3cc(CC(=O)O)ccc3CCc3sccc32)CC1 [Compound 151, [4-(1-Methylpiperidin-4-ylidene)-9,10-dihydro-4H-1-thiabenzo[f]azulen-6-yl]acetic acid] | < 0.1 | 93.6 | 6.36 | >63.6
 | COC(=O)COc1ccc2c(c1)C(=C1CCN(C)CC1)c1sccc1CO2.Cl [Compound 165, Methyl[4-(1-methylpiperidin-4-ylidene)-4,10-dihydro-9-oxa-3-thiabenzo[f]azulen-6-yloxy]acetate hydrochloride] | 0.107 | 11.8 | 23 | 215.0
 | COC(=O)Cc1ccc2c(c1)C(=C1CCN(CCCC(C)=O)CC1)c1sccc1CO2.Cl [Compound 169, Methyl {4-[1-(4-oxopentyl)piperidin-4-ylidene]-4,10-dihydro-9-oxa-3-thiabenzo[f]azulen-6-yl}acetate hydrochloride] | 0.241 | 8.32 | 12.5 | 51.9
 | COC(=O)CSc1ccc2c(c1)C(=C1CCN(C)CC1)c1sccc1CO2.Cl [Compound 171, Methyl[4-(1-methylpiperidin-4-ylidene)-4,10-dihydro-9-oxa-3-thiabenzo[f]azulen-6-ylsulfanyl]acetate hydrochloride] | 0.073 | 4.16 | 29.6 | 405.5
 | CN1CCC(=C2c3cc(SCC(=O)O)ccc3OCc3ccsc32)CC1 [Compound 172, [4-(1-Methylpiperidin-4-ylidene)-4,10-dihydro-9-oxa-3-thiabenzo[f]azulen-6-ylsulfanyl]acetic acid] | 0.117 | 22.2 | 28 | 239.3
 | CCOC(=O)CCN1CCC(=C2c3cc(CC(=O)OC)ccc3OCc3ccsc32)CC1.Cl [Compound 173, Ethyl 3-[4-(6-methoxycarbonylmethyl-10H-9-oxa-3-thiabenzo[f]azulen-4-ylidene)piperidin-1-yl]propionate hydrochloride] | 1.43 | 1.26 | 87.1 | 60.9
 | COC(=O)Cc1ccc2c(c1)C(=C1CCN(CCNS(C)(=O)=O)CC1)c1sccc1CO2.Cl [Compound 177, Methyl {4-[1-(2-methanesulfonylaminoethyl)piperidin-4-ylidene]-4,10-dihydro-9-oxa-3-thiabenzo[f]azulen-6-yl}acetate hydrochloride] | 0.302 | 7.12 | 125 | 412.6
 | COC(=O)Cc1ccc2c(c1)C(=C1CCN(CCC(C)=O)CC1)c1sccc1CO2.Cl [Compound 191, Methyl {4-[1-(3-oxobutyl)piperidin-4-ylidene]-4,10-dihydro-9-oxa-3-thiabenzo[f]azulen-6-yl}acetate hydrochloride] | 0.597 | 4.72 | 79.2 | 132.7
 | COC(=O)CSc1ccc2c(c1)C(=C1CCNCC1)c1sccc1CO2.Cl [Compound 197, Methyl (4-piperidin-4-ylidene-4,10-dihydro-9-oxa-3-thiabenzo[f]azulen-6-ylsulfanyl)acetate hydrochloride] | 0.19 | 80.9 | > 200 | >1052.6
 | COC(=O)Cc1ccc2c(c1)C(=C1CCN(CCCSC)CC1)c1sccc1CO2.Cl [Compound 198, Methyl {4-[1-(3-methylsulfanylpropyl)piperidin-4-ylidene]-4,10-dihydro-9-oxa-3-thiabenzo[f]azulen-6-yl}acetate hydrochloride] | ~0.3 | 0.59 | 22.1 | 73.7
 | COC(=O)Cc1ccc2c(c1)C(=C1CCN(CCSC)CC1)c1sccc1CO2.Cl [Compound 200, Methyl {4-[1-(2-methylsulfanylethyl)piperidin-4-ylidene]-4,10-dihydro-9-oxa-3-thiabenzo[f]azulen-6-yl}acetate hydrochloride] | ~0.3 | 7.83 | 53.4 | 178.0
141 to 142 | CN1CCC(=C2c3ccccc3CCc3sc(Br)cc32)CC1 [Compound 212, 4-(2-Bromo-9,10-dihydro-1-thiabenzo[f]azulen-4-ylidene)-1-methylpiperidine] |  |  |  | 
